Assay results published in ChEMBL document CHEMBL1129399, “N-aryl-3,3,3-trifluoro-2-hydroxy-2-methylpropanamides: KATP potassium channel openers. Modifications on the western region” (J Med Chem, 1996).

Experiments:
[1] = tested on: Rattus norvegicus; test: in vivo activity was evaluated by measuring mean arterial pressure(MAP) after 1 hour.; format: functional, Artery
[2] = tested on: Rattus norvegicus; test: in vivo activity was evaluated by measuring interval between bladder contractions (IC) after 3 hour.; format: functional
[3] = tested on: Rattus norvegicus; test: in vivo activity was evaluated by measuring heart rate(HR) after 1 hour.; format: functional
[4] = tested on: Rattus norvegicus; test: in vivo activity was evaluated by measuring interval between bladder contractions (IC) after 1 hour.
[5] = tested on: Rattus norvegicus; test: in vivo activity was evaluated by measuring heart rate(HR) after 3 hour.; format: functional
[6] = tested on: Rattus norvegicus; test: in vivo activity was evaluated by measuring mean arterial pressure(MAP) after 3 hour.; format: functional, Artery
[7] = tested on: Rattus norvegicus; test: in vivo activity was evaluated by measuring mean arterial pressure(MAP) after 5 hour.; format: functional, Artery
[8] = tested on: Rattus norvegicus; test: in vivo activity was evaluated by measuring heart rate(HR) after 5 hour.; format: functional
[9] = tested on: Rattus norvegicus; test: in vivo activity was evaluated by measuring interval between bladder contractions (IC) after 5 hour.; format: functional
[10] = tested on: Rattus norvegicus; test: in vivo activity was evaluated by measuring interval between bladder contractions (IC) after 1 hour.; format: functional
[11] = tested on: Rattus norvegicus; test: In vivo activity was evaluated by measuring heart rate(HR) after 5 hours; format: functional
[12] = tested on: Rattus norvegicus; test: In vivo activity was evaluated by measuring heart rate(HR) after 1 hour.; format: functional
[13] = tested on: Rattus norvegicus; test: In vivo activity was evaluated by measuring interval between bladder contractions (IC) after 1 hours; format: functional
[14] = tested on: Rattus norvegicus; test: In vivo activity was evaluated by measuring mean arterial pressure(MAP) after 5 hour.; format: functional, Artery
[15] = tested on: Rattus norvegicus; test: In vivo activity was evaluated by measuring mean arterial pressure(MAP) after 1 hour.; format: functional, Artery
[16] = tested on: Rattus norvegicus; test: In vivo activity was evaluated by measuring heart rate(HR) after 3 hour.; format: functional
[17] = tested on: Rattus norvegicus; test: In vivo activity was evaluated by measuring interval between bladder contractions (IC) after 5 hour.; format: functional
[18] = tested on: Rattus norvegicus; test: In vivo activity was evaluated by measuring interval between bladder contractions (IC) after 3 hour.; format: functional
[19] = tested on: Rattus norvegicus; test: In vivo activity was evaluated by measuring mean arterial pressure(MAP) after 3 hour.; format: functional, Artery
[20] = tested on: Rattus norvegicus; test: In vivo activity was evaluated by measuring mean arterial pressure (MAP) after 1 hour.; format: functional, Artery
[21] = tested on: Rattus norvegicus; test: In vivo activity was evaluated by measuring heart rate(HR) after 5 hour.; format: functional
[22] = tested on: Rattus norvegicus; test: In vivo activity was evaluated by measuring interval between bladder contractions (IC) after 1 hour.; format: functional
[23] = tested on: Rattus norvegicus; test: In vivo activity was evaluated by measuring mean arterial pressure(MAP) after 5 hours; format: functional, Artery
[24] = tested on: Rattus norvegicus; test: In vivo activity was evaluated by measuring heart rate(HR) after 3 hours; format: functional
[25] = tested on: Rattus norvegicus; test: In vivo activity was evaluated by measuring mean arterial pressure(MAP) after 1 hour; format: functional, Artery
[26] = tested on: Rattus norvegicus; test: In vivo activity was evaluated by measuring interval between bladder contractions (IC) after 5 hours; format: functional
[27] = tested on: Rattus norvegicus; test: In vivo activity was evaluated by measuring heart rate(HR) after 1 hour; format: functional
[28] = tested on: Rattus norvegicus; test: In vivo activity was evaluated by measuring mean arterial pressure(MAP) after 3 hours; format: functional, Artery
[29] = tested on: Rattus norvegicus; test: In vivo activity was evaluated by measuring interval between bladder contractions (IC) after 1 hour; format: functional
[30] = tested on: Rattus norvegicus; test: In vivo activity was evaluated by measuring interval between bladder contractions (IC) after 3 hours; format: functional

Row | Compound | Delta MAP [1] | Delta IC [2] | Delta HR [3] | Delta HR [5] | Delta MAP [6] | Delta MAP [7] | Delta HR [8] | Delta IC [9] | Delta IC [10] | further results
1 | Cc1cc(C(=O)c2ccccc2)ccc1NC(=O)C(C)(O)C(F)(F)F (stereo unspecified) | -3% | 50% | 0% | -1% | -4% | -4% | 1% | 71% |  | Delta IC [4]: 26%
2 | CC(O)(C(=O)Nc1ccc(S(=O)(=O)c2ccncc2)cc1)C(F)(F)F (stereo unspecified) | 4% | 76% | 5% | 1% | 5% | 1% | 0% | 76% | 20% | 
3 | CC1(C)Oc2ccc(C#N)cc2[C@@H](N2CCCC2=O)[C@@H]1O [CROMAKALIM] |  |  |  |  |  |  |  |  |  | Delta HR [11]: 9%; Delta HR [12]: 20%; Delta IC [13]: 54%; Delta MAP [14]: -12%; Delta MAP [15]: -18%; Delta HR [16]: 13%; Delta IC [17]: 114%; Delta IC [18]: 104%; Delta MAP [19]: -14%
4 | CC(O)(C(=O)Nc1ccc(C(=O)c2ccccc2)cc1)C(F)(F)F (stereo unspecified) |  |  |  |  |  |  |  |  |  | Delta MAP [20]: -1%; Delta HR [12]: 2%; Delta MAP [14]: 2%; Delta HR [21]: -4%; Delta HR [16]: -3%; Delta IC [17]: 128%; Delta IC [18]: 73%; Delta IC [22]: 35%; Delta MAP [19]: 1%
5 | CC(O)(C(=O)Nc1ccc(S(=O)(=O)c2cccnc2)cc1)C(F)(F)F (stereo unspecified) | -16% | 83% | 19% | 3% | -14% | -11% | -2% | 125% | 64% | 
6 | CC(O)(C(=O)Nc1ccc(S(=O)(=O)c2ccncc2)c(O)c1)C(F)(F)F (stereo unspecified) | 1% | 42% | 2% | 2% | 1% | -4% | 6% | 95% | 25% | 
7 | CC(O)(C(=O)Nc1ccc(C(=O)c2cccc(F)c2)cc1)C(F)(F)F (stereo unspecified) | 4% | 56% | 9% | 4% | 2% | 1% | 6% | 61% |  | Delta IC [4]: 25%
8 | CC(O)(C(=O)Nc1ccc(S(=O)(=O)c2ccccc2)cc1)C(F)(F)F (stereo unspecified) |  |  |  |  |  |  |  |  |  | Delta MAP [23]: 23%; Delta HR [11]: -22%; Delta HR [24]: 27%; Delta MAP [25]: -25%; Delta IC [26]: 97%; Delta HR [27]: 32%; Delta MAP [28]: -24%; Delta IC [29]: 24%; Delta IC [30]: 79%
9 | CN(c1ccccc1)S(=O)(=O)c1ccc(NC(=O)C(C)(O)C(F)(F)F)cc1 (stereo unspecified) | -1% | 33% | -1% | 4% | -3% | -4% | 1% | 56% | 30% | 
